Strand notation (5' to 3'): a small letter for the sugar, then the base; units joined by * are phosphorothioate-linked, units joined directly phosphodiester-linked; [ ] holds rarer units or linkages, { } end groups; capitals alone tell only the bases. [ms] = mesyl phosphoramidate linkage; e = 2'-O-(2-methoxyethyl) (MOE); k = constrained ethyl (cEt); [5mC] = 5-methylcytosine; d = 2'-deoxy (DNA)
Assays:
human APOE RNA [1] = assay: Activity in APOE C57BL/6NTac-Apoeem7250 knock-in mice, single ICV bolus, 16 weeks (Example 12); type: in vivo; conditions: single ICV bolus 300 μg, 16 weeks post treatment, normalized to mouse Ppia
In short: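 A single 300 μg intracerebroventricular dose was given, with PBS-treated mice as reference; cortical and spinal cord tissue was taken 16 weeks later. RT-qPCR quantified human APOE RNA, Ppia-normalized, expressed relative to PBS animals (% control).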

human APOE RNA [2] = assay: Activity in APOE C57BL/6NTac-Apoeem7250 knock-in mice, single ICV bolus, 8 weeks (Example 11); type: in vivo; conditions: single ICV bolus 300 μg, 8 weeks post treatment, normalized to mouse Ppia
In short: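 Cortical and spinal cord human APOE RNA quantified by RT-qPCR 8 weeks after a single 300 μg ICV dose in knock-in mice, Ppia-normalized. Values are percent of levels in PBS-treated animals.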

human APOE RNA [3] = assay: Activity in APOE C57BL/6NTac-Apoeem7250 knock-in mice, single ICV bolus, 20 weeks (Example 13); type: in vivo; conditions: single ICV bolus 300 μg, 20 weeks post treatment, normalized to mouse Ppia
In short: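 Cortical and spinal cord RNA was assayed by real-time RT-PCR for human APOE, normalized to mouse Ppia and reported as percent of PBS controls. Tissue was taken twenty weeks after one 300 μg intracerebroventricular bolus in APOE knock-in mice, 4 per group.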

human APOE RNA [4] = assay: Dose-dependent inhibition of human APOE RNA in HepG2 cells, electroporation, 50,000 cells per well, RT-PCR normalized to GAPDH (Example 4, Tables 8-10); type: cell-based; conditions: for APOE RNA (% UTC) 1,280 nM: 24-hour treatment, 1,280 nM; for APOE RNA (% UTC) 3,200 nM: 24-hour treatment, 3,200 nM; for APOE RNA (% UTC) 8,000 nM: 24-hour treatment, 8,000 nM; for APOE RNA (% UTC) 20,000 nM: 24-hour treatment, 20,000 nM
In short: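 Readout is percent APOE RNA versus untreated controls, measured by RT-PCR (primer probe set RTS3073) and normalized to human GAPDH. Modified oligonucleotides were delivered by electroporation at varying doses into HepG2 cells plated at 50,000 per well.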

human APOE RNA [5] = assay: Activity in APOE C57BL/6NTac-Apoeem7250 knock-in mice, single ICV bolus, 4 weeks (Example 10); type: in vivo; conditions: single ICV bolus 300 μg, 4 weeks post treatment, normalized to mouse Ppia
In short: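 Human APOE RNA, quantified by real-time RT-PCR with RTS3073 and normalized to mouse Ppia, was read in cortical brain and spinal cord 4 weeks post dosing. Dosing was a single ICV bolus of 300 μg per knock-in mouse; values are % of PBS-treated animals.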

[6] = 5 nM, HepG2, electroporation, 16-hour treatment
[7] = 13 nM, HepG2, electroporation, 16-hour treatment
[8] = 33 nM, HepG2, electroporation, 16-hour treatment
[9] = 82 nM, HepG2, electroporation, 16-hour treatment
[10] = 205 nM, HepG2, electroporation, 16-hour treatment
[11] = 512 nM, HepG2, electroporation, 16-hour treatment
[12] = 1,280 nM, HepG2, electroporation, 16-hour treatment
[13] = 3,200 nM, HepG2, electroporation, 16-hour treatment
[14] = 8,000 nM, HepG2, electroporation, 16-hour treatment
[15] = 20,000 nM, HepG2, electroporation, 16-hour treatment
[16] = HepG2, electroporation, 16-hour treatment
[17] = HepG2 cells, electroporation, 24-hour treatment, 5 nM, Table 8
[18] = HepG2 cells, electroporation, 24-hour treatment, 13 nM, Table 8
[19] = HepG2 cells, electroporation, 24-hour treatment, 33 nM, Table 8
[20] = HepG2 cells, electroporation, 24-hour treatment, 82 nM, Table 8
[21] = HepG2 cells, electroporation, 24-hour treatment, 205 nM, Table 8
[22] = HepG2 cells, electroporation, 24-hour treatment, 512 nM, Table 8
[23] = HepG2 cells, electroporation, Table 8
[24] = reduction of human APOE RNA, HepG2 cells, electroporation, 24-hour treatment, Table 8

Substance	APOE RNA (% control) Cortex (human APOE RNA [1]) [% control]	APOE RNA (% control) Spinal Cord (human APOE RNA [1]) [% control]	APOE RNA (% control) Cortex (human APOE RNA [2]) [% control]	APOE RNA (% control) Spinal Cord (human APOE RNA [2]) [% control]	APOE RNA (% control) Cortex (human APOE RNA [3]) [% control]	APOE RNA (% control) Spinal Cord (human APOE RNA [3]) [% control]	APOE RNA (% UTC) (human APOE RNA [4]; [6])	APOE RNA (% UTC) (human APOE RNA [4]; [7])	APOE RNA (% UTC) (human APOE RNA [4]; [8])	APOE RNA (% UTC) (human APOE RNA [4]; [9])	APOE RNA (% UTC) (human APOE RNA [4]; [10])	APOE RNA (% UTC) (human APOE RNA [4]; [11])	APOE RNA (% UTC) (human APOE RNA [4]; [12])	APOE RNA (% UTC) (human APOE RNA [4]; [13])	APOE RNA (% UTC) (human APOE RNA [4]; [14])	APOE RNA (% UTC) (human APOE RNA [4]; [15])	IC50 (human APOE RNA [4]; [16]) [nM]	APOE RNA (% control) Cortex (human APOE RNA [5]) [% control]	APOE RNA (% control) Spinal Cord (human APOE RNA [5]) [% control]	APOE RNA (% UTC) 5 nM (human APOE RNA [4]; [17]) [% UTC]	other results
1757571 (eA*e[5mC]eTeT*eG*kG*dT*dG[ms]dA[ms]dA[ms]dT*d[5mC]*dT*dT*dT*dA[ms]eT*eT*eA*eA; antisense) [Compound 1757571]	47	26	66	33	53	73	68	86	98	62	103	38	26	24	14	11	550	48	35	–	–
1757574 (eA*e[5mC]eTeT*eG*eG*dT*dG[ms]dA[ms]dA[ms]dT*d[5mC]*dT*dT*dT*dA[ms]kT*kT*eA*eA; antisense) [Compound 1757574]	55	22	44	21	60	68	90	80	85	78	93	66	47	28	19	20	1170	43	32	–	–
1778114: modified oligonucleotide complementary to human APOE RNA (eA*e[5mC]eTeTkG*kG*dT*dG[ms]dA[ms]dA*dT*d[5mC]*dT*dT*dT*dA[ms]eTeT*eA*eA; antisense) [compound 1778114]	52	27	47	32	56	26	–	–	–	–	–	–	–	–	–	–	–	37	57	78	APOE RNA (% UTC) 13 nM (human APOE RNA [4]; [18]): 82 % UTC; APOE RNA (% UTC) 33 nM (human APOE RNA [4]; [19]): 78 % UTC; APOE RNA (% UTC) 82 nM (human APOE RNA [4]; [20]): 78 % UTC; APOE RNA (% UTC) 205 nM (human APOE RNA [4]; [21]): 67 % UTC; APOE RNA (% UTC) 512 nM (human APOE RNA [4]; [22]): 45 % UTC; APOE RNA (% UTC) 1,280 nM (human APOE RNA [4]; [23]): 42 % UTC; APOE RNA (% UTC) 3,200 nM (human APOE RNA [4]; [23]): 20 % UTC; APOE RNA (% UTC) 8,000 nM (human APOE RNA [4]; [23]): 11 % UTC; APOE RNA (% UTC) 20,000 nM (human APOE RNA [4]; [23]): 7 % UTC; IC50 (human APOE RNA [4]; [24]): 430 nM
1778115: modified oligonucleotide complementary to human APOE RNA (eA*e[5mC]eTeTkGkG*dT*dG[ms]dA[ms]dA*dT*d[5mC]*dT*dT*dT*dA[ms]eTeT*eA*eA; antisense) [compound 1778115]	44	28	46	27	77	28	–	–	–	–	–	–	–	–	–	–	–	37	66	76	APOE RNA (% UTC) 13 nM (human APOE RNA [4]; [18]): 75 % UTC; APOE RNA (% UTC) 33 nM (human APOE RNA [4]; [19]): 73 % UTC; APOE RNA (% UTC) 82 nM (human APOE RNA [4]; [20]): 85 % UTC; APOE RNA (% UTC) 205 nM (human APOE RNA [4]; [21]): 72 % UTC; APOE RNA (% UTC) 512 nM (human APOE RNA [4]; [22]): 43 % UTC; APOE RNA (% UTC) 1,280 nM (human APOE RNA [4]; [23]): 38 % UTC; APOE RNA (% UTC) 3,200 nM (human APOE RNA [4]; [23]): 29 % UTC; APOE RNA (% UTC) 8,000 nM (human APOE RNA [4]; [23]): 32 % UTC; APOE RNA (% UTC) 20,000 nM (human APOE RNA [4]; [23]): 6 % UTC; IC50 (human APOE RNA [4]; [24]): 530 nM
1778119 (eA*e[5mC]eTeTeG*eG*dT*dG[ms]dA[ms]dA*dT*d[5mC]*dT*dT*dT*dA[ms]kTeT*eA*eA; antisense) [Compound 1778119]	62	38	52	27	84	51	–	–	–	–	–	–	–	–	–	–	–	45	56	–	–

From US20250353873A1, “COMPOUNDS AND METHODS FOR MODULATING APOE EXPRESSION” (Ionis Pharmaceuticals, Inc., priority 2024, published 2025)
